Reference: patent US7964720B2, “Method of making porphyrins” (North Carolina State University, priority 2007, dated 2011)

What was measured:
[1] = From the text: 4. Solubility. […] We compared the solubility of 1, Pd-1, Zn-1 and Mg-1 in common organic solvents (CH2Cl2, THF, MeOH, ethyl acetate, toluene).
[2] = Stability of the magnesium chelate in solution and on silica column chromatography; format: physicochemical
Description: Thus, refluxing a mixture of 2 (100 mM) in toluene containing DBU (10 equiv vs. 2) and MgBr2 (3 equiv) in the presence of air afforded Mg(II)porphine (Mg-1) in 41% yield. Note that no quinone oxidant is required. Mg(II)porphine was purified by filtration through an alumina column. No free base porphine was detected in the reaction mixture. […] Neither starting material nor macrocyclic byproducts were detected. Therefore we performed the purification of Mg-1 without column chromatography. The crude reaction mixture was concentrated. The resulting oily material was treated with THF, filtered (to remove the polymeric material and inorganic salt), and filtrate was concentrated. Subsequent washing with water (to remove an excess of DBU) and crystallization from ethanol/water afforded Mg-1 in satisfactory purity. […] Note that Mg(II)porphine (Mg-1) was previously prepared by metalation of 1.^2

[3] = background statement; cited from earlier work

Row | general trend in solubility [1] | solubility in common organic solvents [1] | stability in solution ([2]; in solution) | behaviour upon silica column chromatography ([2]; silica column chromatography) | Molecule | solubility of the free base [3]
1 | Pd-1<1<Zn-1<<Mg-1 | – | – | – | Zn(II)porphine [Zn-1] | –
2 | Pd-1<1<Zn-1<<Mg-1 | sufficiently high | stable in solution | partial decomplexation | Mg(II)porphine [Mg-1] | –
3 | Pd-1<1<Zn-1<<Mg-1 | – | – | – | Pd(II)porphine [Pd-1] | –
4 | Pd-1<1<Zn-1<<Mg-1 | poor solubility | – | – | C1=Cc2cc3ccc(cc4nc(cc5ccc(cc1n2)[nH]5)C=C4)[nH]3 [compound 1, Porphine] | extremely low solubility
